Experimental data as given in article PMC314469, “Protein Interaction Networks by Proteome Peptide Scanning” (PLoS Biology, 2004).

system: Myo5 SH3 domain; test: SPOT analysis of cellulose-bound peptides (WISE), Myo5 SH3 domain (Dataset S4); format: binding, Saccharomyces cerevisiae; conditions: SPOT analysis of cellulose-bound 14-mer yeast proteome peptides, Myo5 SH3 domain; normalized value; mean where the peptide was synthesized more than once

Row | Sequence | The normalized value in BLU units [BLU]
1 | SVDPKNYPDAPLEG | 91.1
2 | SVNIKCWPLKPSNF | 56.5
3 | SWAVLPVPGGPVMY | 69.2
4 | SWRSLTKPKIPLYK | 356.9
5 | TAPIHSTPKPPPND | 77.7
6 | TASQLQNPPPPPST | 168.2
7 | TAWDMVPPYSPLSE | 126.6
8 | TEDGFVIPALPAAV | 290.4
9 | TEEILPTPVQPGGH | 121.0
10 | TELLKTLPFYPTPS | 77.3
11 | TELNLSCPNVPGKP | 227.7
12 | TGKPRKTPRPPFPF | 1192.8
13 | TIEARVHPEPPNKP | 374.9
14 | TKAKKEKPKPPKPI | 157.7
15 | TLATLTEPKLPKSY | 18.0
16 | TLDEKECPSVPPTV | 211.5
17 | TLFRFIVPFNPYFS | 881.8
18 | TLHELGVPITPIAF | 118.6
19 | TLRSMIPPFTPQLD | 412.7
20 | TPINFVFPNLPLEH | 81.8
21 | TPMDFPEPVGPLAI | 175.4
22 | TPTHHHIPHIPNQN | 147.9

Row | Sequence | The normalized value in BLU units [BLU]
23 | TPTPHPHPHTPHPH | 157.9
24 | TPYQLLSPILPVLL | 287.1
25 | TQSGRMGPSEPKHR | 455.6
26 | TSCTKEKPTPPTTT | 118.4
27 | TWKMHLWPVSPPQL | 224.0
28 | TYGFRVRPDFPVFG | 357.0
29 | TYLTRPLPSTPNED | 101.0
30 | VAGYFVIPHTPMPS | 179.6
31 | VAKSYGFPVPPKVN | 258.9
32 | VAPGLWFPNSPPPL | 4831.4
33 | VAWCHDSPKPPSDR | 30.6
34 | VELHFPKPEDPACI | 14.9
35 | VFGTYLGPDAPLSK | 130.5
36 | VFKFLFHPVTPSHF | 564.7
37 | VFSCLRDPVIPIKL | 132.4
38 | VLEAYNVPTPPRLE | 57.4
39 | VLKNLPTPGEPFNF | 148.4
40 | VLLPLRLPEIPPKG | 1072.4
41 | VLTKMNAPQKPEDI | 296.2
42 | VPDSYKPPKNPIVF | 829.4
43 | VPGEHFAPMGPNGQ | 64.7
44 | VPIIFEIPFNPIYK | 214.9

same assay, conditions: SPOT analysis of cellulose-bound peptides probed with Myo5 SH3 domain; normalized value

Row | Sequence | The normalized value in BLU units (SPOT analysis, Myo5 SH3) [BLU]
45 | SWLTMLPPMAPLLS | 504.9
46 | TAAELQAPPPPPSS | 315.2
47 | TEGKYAPPSQPSMA | 222.8
48 | TFRDMDLPQHPVIH | 188.2
49 | TFSIYSIPSKPGEC | 226.8
50 | TLEWLLTPYTPGDD | 163.5
51 | TLIEYMGPAPPKGS | 133.3
52 | TLKKFVLPCLPRKN | 504.4
53 | TLPPLSSPMNPNGH | 252.3
54 | TPPPPPLPSVLSS | 25804
55 | TPSNMGSPGSPVNV | 156.2
56 | VARPLSVPGSPRDL | 186.0
57 | VAVPFTLPVIPYDL | 240.5
58 | VEPEWYLPILPMIL | 235.7
59 | VEVIMHSPSDPEYA | 150.4
60 | VFLRLISPTRPSLE | 1635.5
61 | VFSLMNCPAYPDVQ | 153.4
62 | VLFNLDHPMVPENL | 220.3
63 | VLGVLNVPLPPQTR | 233.0
64 | VLIKFVIPVYPSLP | 561.8
65 | VLKGFYSPSAPSYD | 290.1
66 | VLKTLAFPINPSDI | 156.0
67 | VLSKFIKPKNPSLV | 319.5
68 | VPAILMTPICPRSL | 138.1
69 | VPDQLLTPLQPYTI | 168.3
70 | VPGGMSIPGAPQGA | 139.5
71 | VPLPFGIPPFPMFP | 11610.9

same assay, conditions: SPOT analysis of membrane-bound peptides, Myo5 SH3 domain; normalized value (see methods)

Row | Sequence | The normalized value in BLU units [BLU]
72 | SYMDKIYPDLPNDK | 83.0
73 | TASGKTSPILPLQN | 290.5
74 | TDLGKDIPFFPSSE | 146.5
75 | TEFSRPIPPTPSGF | 163.0
76 | TEIYKLEPREPQVD | 29.1
77 | TELLRIIPEMPKDL | 228.1
78 | TGYPRYFPQPPVQR | 5858.1
79 | TILERLTPLVPNNL | 249.4
80 | TKKRKLGPKAPNPL | 693.8
81 | TKRQRGEPSEPQQD | 27.7
82 | TLNDRQIPLSPDQM | 73.6
83 | TMKNKPKPTPPSPP | 909.8
84 | TNGPRYSPQNPRPF | 158.5
85 | TNSVKATPVPPTLA | 168.0
86 | TPQSRFPPYSPLLP | 442.7
87 | TQMKRLKPVSPGLR | 1445.1
88 | TQPVRKNPEAPARR | 232.1
89 | TSNTKWTPITPSVI | 141.7

Row | Sequence | The normalized value in BLU units [BLU]
90 | TSSLRKPPNGPSSV | 143.8
91 | TSWARDNPSKPDIA | 81.6
92 | TTRRKKDPNAPKRR | 999.1
93 | TTTYKSRPDRPKPV | 309.3
94 | TVCDRLIPTSPQKT | 127.7
95 | TYIWRYLPAPPVCI | 444.5
96 | VAPNRIPPKVPVIN | 61069.9
97 | VASSRTEPSTPSRP | 178.5
98 | VCHSKYIPLKPIQD | 298.3
99 | VDSFKYEPLAPGND | 134.0
100 | VEKRKFTPIEPSLL | 171.2
101 | VEMKRKKPVRPVDI | 472.2
102 | VFYHRPAPKPPVTK | 9049.3
103 | VIIGKTTPISPDEE | 54.0
104 | VKRPRLNPFLPRDE | 1186.3
105 | VNTPRSVPNSPNDG | 65.0
106 | VPIDKKSPFYPGLD | 150.4

same assay, conditions: SPOT analysis of membrane-synthesized peptides probed with Myo5 SH3 domain; normalized value

Row | Sequence | The normalized value in BLU units (SPOT analysis, Myo5 SH3) [BLU]
107 | STDHRGTPANPGRV | 257.1
108 | STNAKKDPFPPPKD | 198.5
109 | SVSEKTNPSSPSVS | 126.7
110 | SYISRKYPRAPAFI | 740.2
111 | TARNKKSPGGPRQR | 593.2
112 | TDLFKPLPEPPTEL | 23.4
113 | TDTTKVTPIVPVPI | 48.0
114 | TEVWRKVPMKPIFE | 242.9
115 | TGESRKAPLIPLLK | 214.2
116 | TGGGRIVPGVPPGA | 118.4
117 | TGKFRYMPFSPAGT | 555.5
118 | TINSRFYPPIPISE | 76.4
119 | TKFTKPKPKQPVLP | 445.1
120 | TKTDKSYPMCPVDA | 150.0
121 | TLDEKNLPRLPTPF | 205.2
122 | TLKKKKTPKKPIAA | 535.4
123 | TSGYKYFPQFPQLK | 234.6
124 | TSISRISPQDPEAK | 194.2
125 | TSSSRRGPGRPRKD | 619.5

Row | Sequence | The normalized value in BLU units (SPOT analysis, Myo5 SH3) [BLU]
126 | TTKHKAPPPPPPTA | 1684.9
127 | TTNSRLCPSSPSSS | 160.8
128 | TTRKKKDPNAPKRA | 274.6
129 | TTTIKNRPVPPPLP | 1868.9
130 | TVRTRRRPPPPPIP | 46234.4
131 | VCTIRSTPSQPIHC | 244.9
132 | VEVDKKVPVLPMVA | 129.9
133 | VFVEKSKPTYPGTE | 96.4
134 | VHFYKSLPQGPAPA | 509.7
135 | VHVLKYAPDEPNSL | 191.3
136 | VKATKWPPKLPEIQ | 57.4
137 | VKKEKKPPKIPKKV | 534.4
138 | VKPTKLEPENPQKP | 91.3
139 | VLFMKGTPEFPKCG | 212.8
140 | VLGPKYDPKCPEEH | 156.7
141 | VLKIKPLPYKPRGR | 646.7
142 | VLTVKMSPSLPDEI | 229.5
143 | VNIGRRSPYLPLQP | 476.3
